Laboratory results as given in a melting point compilation (Tetko et al.; mined from patent text by program, amines drawn as free bases though some values may be those of a salt).

| Structure (SMILES) | melting point [°C] |
| --- | --- |
| O=c1oc(-c2cccc(OC(F)(F)F)c2)cc(O)c1SCc1ccccc1 | 128 to 132 |
| CN1CCN(NS(=O)(=O)c2cc([N+](=O)[O-])c(Cl)s2)CC1 | 91 |
| CCn1nc(-c2ccc(F)cc2)c(-c2ccc(S(C)(=O)=O)cc2)cc1=O | 177 to 179 |
| O=C(Cc1cccc(Cl)c1F)c1ccc(F)c(Cl)c1 | 109 to 111 |
| C=CCn1ccnc1C(O)(c1ccccc1)c1ccc(Cl)cc1 (stereo not given) | 165 to 166 |
| Cn1c(=O)c(-c2ccc(Cl)cc2Cl)cc2c3cc(I)ccc3n(C)c21 | 223 to 225 |
| O=C(O)c1cn(C2CC2)c2c(F)c(N3CCC(O)C3)c(F)cc2c1=O (stereo not given) | 276 to 278 |
| O=C1c2ccccc2S(=O)(=O)N1C1CCN(CC2COc3ccccc3O2)CC1 (stereo not given) | 224 to 230 |
| COc1cc(-c2nn(C)c(C(F)(F)F)c2Br)c(F)cc1N | 85 to 86 |
| CCOC(=O)c1cc2cccc(NS(=O)(=O)c3ccccc3C(F)(F)F)c2[nH]1 | 138 to 139 |
| CC(=NO)c1cnc2c(NC(=O)c3c(Cl)cccc3Cl)cccc2c1 | 215 to 243 |
| CC1(C)C(=O)Oc2ccc3ccc(C(C#N)n4cncn4)cc3c21 (stereo not given) | 196 to 198 |
| COC(=O)c1cscc1NC(=O)NCCCCCBr | 92 to 93.5 |
| O=c1ccn([C@@H]2C[C@H](O)[C@@H](O)[C@H]2O)cc1 (racemic) | 186 to 188 |
| O=C1N(CC2CCCO2)c2ccccc2C12COc1cc3c(cc12)OCCO3 (stereo not given) | 174 to 176 |
| CSc1cc(Cl)ccc1C(=O)CC#N | 139 to 141 |
| O=C1CCC(N2Cc3c(OCc4ccc(CN5CCC(O)CC5)cc4)cccc3C2=O)C(=O)N1 (stereo not given) | 204 to 206 |
| CCCCCCCCCCCCCCCCCNC(=O)OC1CCCOC1COCC(O)CCCCCCO (stereo not given) | 67 to 68 |
| COc1cc(N)c(Cl)cc1C(=O)NCC1CCN(CCCCNC(=O)c2cccc3ccccc23)CC1 | 138 to 141 |
| COc1cn(-c2ccc(-n3cc(Cl)cn3)cc2F)nc(-c2ccnn2-c2ccccc2)c1=O | 190 to 192 |

| Structure (SMILES) | melting point [°C] |
| --- | --- |
| Cc1cccc2c1CCn1ncnc1C2=C1CCN(C)CC1 | 150 |
| CCc1nn(C2CCCC2)c2cc(C(=O)OC)ccc12 | 106 to 109 |
| CCCCCCOc1c(CBr)ccc2c(OCCCCCC)c(CBr)ccc12 | 58 to 60 |
| Cc1nc2c(OCc3c(Cl)ccc(S(=O)(=O)N4CCC[C@H]4C(=O)NCCCNC(=O)c4ccc(C#N)cc4)c3Cl)cccn2c1Cl | 115 |
| CC(C)(O)CCNC(=O)c1nn(C2CCCCO2)cc1NC(=O)c1ccccn1 (stereo not given) | 138 to 139 |
| NCCCn1cc(-c2cc3nccnc3[nH]2)c2ccccc21 | 170 |
| CCC1Nc2cc(F)c(F)cc2-n2cccc21 (stereo not given) | 67 to 69 |
| O=C(O)c1cc2cccc(OCC3CO3)c2o1 (stereo not given) | 117 to 119 |
| COc1cc(Nc2nccc(Nc3cccc(C)c3S(N)(=O)=O)n2)cc(OC)c1OC | 72 to 75 |
| NC(=O)Cc1c[nH]c2ccc(OCc3ccccc3)cc12 | 137 to 140 |
| Clc1ccc2c(c1)NCc1ccccc1O2 | 94 to 95 |
| C[C@H]1c2cc(F)ccc2-c2ccc(F)cc2N1S(=O)(=O)c1ccc(O)cc1 | 194 to 196 |
| CCC(=O)Nc1cc(C(=O)O)ccc1N1C(=O)CCC1(CO)CO | 217 to 218 |
| c1ccc(-c2cn3cccnc3n2)cc1 | 200 to 202 |
| CCN(CC)C(=O)c1ccc(OCOC)cc1-c1ccccc1 | 63 to 64 |
| CC(C)(C)[N+]([O-])=Cc1cc(Cl)ccc1O | 143 |
| CCOC(=O)c1c(C)nc2c(c1N)c1ccccc1n2Cc1ccccc1 | 139 to 140 |
| CSC1C=C2C=CC=CN2N1[N+](=O)[O-] (stereo not given) | 225 |
| CCCCc1ccc(-c2ccc(CCc3ccc(C)cc3)cc2)c(F)c1 | 41 |
| NC(=O)c1c(-c2cnccn2)ssc1=S | 267 |
